Patent publication US20260226086A1, “COMPOUNDS AND COMPOSITIONS AS STAT3 DEGRADERS AND USES THEREOF” (REGENTS OF THE UNIVERSITY OF MICHIGAN, priority 2023, published 2026)

What was measured:
Format in all cases: cell-based
STAT3 = target: T1, STAT3 (Homo sapiens, UniProt P40763); test: HiBiT assay, STAT3 degradation in STAT3-HiBiT KI HeLa cells; settings: 24 h; for DC50: read-out: STAT3 Degradation (HeLa 24 h HiBit) DC50
T1 construct: This cell line is a clone created by using CRISPR-Cas9 to fuse HiBiT to the 3′ end of STAT3 in HeLa cells; host or cells: STAT3-HiBiT KI HeLa cell line (CRISPR-Cas9 knock-in clone)
Method: STAT3 degradation may be determined by HiBiT assay. STAT3-HiBiT KI HeLa cell line, which is a clone created by using CRTISPR-Cas9 to fuse HiBiT to the 3′ end of STAT3 in HeLa cells, may be used for this assay. In a typical procedure, cells seeded at certain amounts of cells (e.g., 20000 cells) per well are incubated with serially diluted compounds for certain period of time (e.g., 24 hours) under certain conditions (e.g., at 37° C. with 5% CO2). At the end of treatment, Nano-Glo HiBiT Lytic Detection reagents is added to the wells and luminescence is acquired on TECAN SPARK plate reader. Untreated cells are used as control. Data points are fit with a four-parameter equation to generate a concentration-response curve. IC50 values are calculated using a nonlinear regression analysis of the mean±SD from triplicate.
STAT3-HiBiT KI HeLa cell line was purchased from Promega. This cell line is a clone created by using CRISPR-Cas9 to fuse HiBiT to the 3′ end of STAT3 in HeLa cells. DMEM medium and FBS were purchased from Gibco/Thermo Fisher Scientific. STAT3 degradation was determined based on quantification of luminescent signal using Nano-Glo HiBiT Lytic Detection System. In a typical procedure, cells seeded at 20000 cells per well in 96-well white plates (Corning) were incubated with serially diluted compounds for 24 hours at 37° C. with 5% CO2. At the end of treatment, Nano-Glo HiBiT Lytic Detection reagents was added to the wells and luminescence was acquired on TECAN SPARK plate reader. Untreated cells were used as control. Data points were fit with a four-parameter equation to generate a concentration-response curve. IC50 values were calculated using a nonlinear regression analysis of the mean±SD from triplicate.

SU-DHL-1 cells = test: CellTiter-Glo 2.0 cell viability assay, SU-DHL-1; settings: Homo sapiens, 96 h, 4 days
Method: (§1) For example, cell viability may be determined by CellTiter-Glo 2.0 Cell Viability Assay. In a typical procedure, cells seeded at certain amounts of cells (e.g., 1000 cells) per well are incubated with serially diluted compounds for certain period (e.g., 4 days) under certain conditions (e.g., at 37° C. with 5% CO2). At the end of treatment, CellTiter-Glo 2.0 is added to the wells and luminescence is acquired on TECAN SPARK plate reader. Untreated cells are used as control, Data points are fit with an equation (e.g., a four-parameter equation) to generate a concentration-response curve. IC50 values are calculated using a nonlinear regression analysis of the mean±SD from triplicate.
(§2) SU-DHL-1 and SUP-M2 cell viability was determined by CellTiter-Glo 2.0 Cell Viability Assay (Promega). SU-DHL-1 cell line was purchased from ATCC (Manassas, VA) and SUP-M2 (ACC-509) was purchased from DSMZ (Germany). RPMI 1640 medium and fetal bovine serum (FBS) were purchased from Gibco/Thermo Fisher Scientific. In a typical procedure, cells seeded at 1000 cells per well in 384-well white plates (Corning) were incubated with serially diluted compounds for 4 days at 37° C. with 5% C02. At the end of treatment, CellTiter-Glo 2.0 was added to the wells and luminescence was acquired on TECAN SPARK plate reader. Untreated cells were used as control. Data points were fit with a four-parameter equation to generate a concentration-response curve. IC50 values were calculated using a nonlinear regression analysis of the mean±SD from triplicate.

SUP-M2 cells = test: CellTiter-Glo 2.0 cell viability assay, SUP-M2; settings: SUP-M2, 96 h, 4 days
Method: as §1, §2

T1 sequence (P40763 whole entry): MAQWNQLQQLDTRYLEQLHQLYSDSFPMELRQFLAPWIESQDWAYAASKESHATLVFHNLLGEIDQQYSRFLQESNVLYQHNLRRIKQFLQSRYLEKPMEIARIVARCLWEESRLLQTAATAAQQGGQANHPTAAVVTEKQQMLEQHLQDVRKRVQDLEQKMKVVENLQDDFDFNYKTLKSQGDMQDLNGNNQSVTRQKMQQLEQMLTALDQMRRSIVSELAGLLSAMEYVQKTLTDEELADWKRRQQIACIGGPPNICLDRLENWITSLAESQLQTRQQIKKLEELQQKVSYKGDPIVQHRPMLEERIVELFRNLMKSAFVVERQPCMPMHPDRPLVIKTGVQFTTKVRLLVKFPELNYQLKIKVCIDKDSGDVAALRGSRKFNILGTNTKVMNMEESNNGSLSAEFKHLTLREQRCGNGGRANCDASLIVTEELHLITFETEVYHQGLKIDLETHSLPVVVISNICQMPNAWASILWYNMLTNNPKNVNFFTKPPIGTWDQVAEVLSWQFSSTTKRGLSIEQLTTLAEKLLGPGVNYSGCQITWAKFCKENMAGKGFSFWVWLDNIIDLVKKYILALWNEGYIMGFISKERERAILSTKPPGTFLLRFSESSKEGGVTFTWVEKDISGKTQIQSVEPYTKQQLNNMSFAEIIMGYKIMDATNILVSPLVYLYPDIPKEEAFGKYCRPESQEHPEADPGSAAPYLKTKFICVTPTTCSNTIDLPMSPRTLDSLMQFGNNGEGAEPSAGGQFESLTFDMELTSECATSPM

SMILES	Dmax at 1 µM (STAT3) [%]	DC50 (STAT3) [µM]	IC50 (SU-DHL-1 cells) [µM]	IC50 (SUP-M2 cells) [µM]
CC(=O)N1CC[C@H]2CC[C@@H](C(=O)N[C@@H](CCC(N)=O)COc3cccc(CCCc4cn(C[C@H](NC(=O)[C@@H]5C[C@@H](O)CN5C(=O)[C@@H](n5cc(C6CC6)nn5)C(C)(C)C)c5ccc(-c6scnc6C)cc5)nn4)c3Cl)N2C(=O)[C@@H](NC(=O)c2cc3cc(C(=O)P(=O)(O)O)ccc3[nH]2)C1 [Compound 6, (2-(((5S,8S,10aR)-3-acetyl-8-(((S)-5-amino-1-(2-chloro-3-(3-(1-((R)-2-((2S,4R)-1-((S)-2-(4-cyclopropyl-1H-1,2,3-triazol-1-yl)-3,3-dimethylbutanoyl)-4-hydroxypyrrolidine-2-carboxamido)-2-(4-(4-methylthiazol-5-yl)phenyl)ethyl)-1H-1,2,3-triazol-4-yl)propyl)phenoxy)-5-oxopentan-2-yl)carbamoyl)-6-oxodecahydropyrrolo[1,2-a][1,5]diazocin-5-yl)carbamoyl)-1H-indole-5-carbonyl)phosphonic acid]	> 80	< 0.01	0.01 to 0.1	0.01 to 0.1
CC(=O)N1CC[C@H]2CC[C@@H](C(=O)N[C@@H](CCC(N)=O)COc3cccc(CCCCNC(=O)C[C@H](NC(=O)[C@@H]4C[C@@H](O)CN4C(=O)[C@@H](n4cc(C5CC5)nn4)C(C)(C)C)c4ccc(-c5scnc5C)cc4)c3Cl)N2C(=O)[C@@H](NC(=O)c2cc3cc(C(=O)P(=O)(O)O)ccc3[nH]2)C1 [Compound 7, (2-(((5S,8S,10aR)-3-acetyl-8-(((S)-5-amino-1-(2-chloro-3-(4-((S)-3-((2S,4R)-1-((S)-2-(4-cyclopropyl-1H-1,2,3-triazol-1-yl)-3,3-dimethylbutanoyl)-4-hydroxypyrrolidine-2-carboxamido)-3-(4-(4-methylthiazol-5-yl)phenyl)propanamido)butyl)phenoxy)-5-oxopentan-2-yl)carbamoyl)-6-oxodecahydropyrrolo[1,2-a][1,5]diazocin-5-yl)carbamoyl)-1H-indole-5-carbonyl)phosphonic acid]	> 80	< 0.01	0.01 to 0.1	< 0.01
Cc1ncsc1-c1ccc([C@H](C)NC(=O)[C@@H]2C[C@@H](O)CN2C(=O)[C@@H](n2cc(CCC(=O)N3CC[C@H]4CC[C@@H](C(=O)N[C@@H](CCC(N)=O)C(=O)NCc5cccc(Cl)c5)N4C(=O)[C@@H](NC(=O)c4cc5cc(C(=O)P(=O)(O)O)ccc5[nH]4)C3)nn2)C(C)(C)C)cc1 [Compound 8, (2-(((5S,8S,10aR)-8-(((S)-5-amino-1-((3-chlorobenzyl)amino)-1,5-dioxopentan-2-yl)carbamoyl)-3-(3-(1-((S)-1-((2S,4R)-4-hydroxy-2-(((S)-1-(4-(4-methylthiazol-5-yl)phenyl)ethyl)carbamoyl)pyrrolidin-1-yl)-3,3-dimethyl-1-oxobutan-2-yl)-1H-1,2,3-triazol-4-yl)propanoyl)-6-oxodecahydropyrrolo[1,2-a][1,5]diazocin-5-yl)carbamoyl)-1H-indole-5-carbonyl)phosphonic acid]	> 80	0.1 to 1	0.1 to 1	0.01 to 0.1
Cc1ncsc1-c1ccc([C@H](C)NC(=O)[C@@H]2C[C@@H](O)CN2C(=O)[C@@H](n2cc(CCCC(=O)N3CC[C@H]4CC[C@@H](C(=O)N[C@@H](CCC(N)=O)C(=O)NCc5cccc(Cl)c5)N4C(=O)[C@@H](NC(=O)c4cc5cc(C(=O)P(=O)(O)O)ccc5[nH]4)C3)nn2)C(C)(C)C)cc1 [Compound 9, (2-(((5S,8S,10aR)-8-(((S)-5-amino-1-((3-chlorobenzyl)amino)-1,5-dioxopentan-2-yl)carbamoyl)-3-(4-(1-((S)-1-((2S,4R)-4-hydroxy-2-(((S)-1-(4-(4-methylthiazol-5-yl)phenyl)ethyl)carbamoyl)pyrrolidin-1-yl)-3,3-dimethyl-1-oxobutan-2-yl)-1H-1,2,3-triazol-4-yl)butanoyl)-6-oxodecahydropyrrolo[1,2-a][1,5]diazocin-5-yl)carbamoyl)-1H-indole-5-carbonyl)phosphonic acid]	> 80	0.01 to 0.1	0.01 to 0.1	0.01 to 0.1
Cc1ncsc1-c1ccc([C@H](C)NC(=O)[C@@H]2C[C@@H](O)CN2C(=O)[C@@H](n2cc(CCCCC(=O)N3CC[C@H]4CC[C@@H](C(=O)N[C@@H](CCC(N)=O)C(=O)NCc5cccc(Cl)c5)N4C(=O)[C@@H](NC(=O)c4cc5cc(C(=O)P(=O)(O)O)ccc5[nH]4)C3)nn2)C(C)(C)C)cc1 [Compound 10, (2-(((5S,8S,10aR)-8-(((S)-5-amino-1-((3-chlorobenzyl)amino)-1,5-dioxopentan-2-yl)carbamoyl)-3-(5-(1-((S)-1-((2S,4R)-4-hydroxy-2-(((S)-1-(4-(4-methylthiazol-5-yl)phenyl)ethyl)carbamoyl)pyrrolidin-1-yl)-3,3-dimethyl-1-oxobutan-2-yl)-1H-1,2,3-triazol-4-yl)pentanoyl)-6-oxodecahydropyrrolo[1,2-a][1,5]diazocin-5-yl)carbamoyl)-1H-indole-5-carbonyl)phosphonic acid]	> 80	0.01 to 0.1	0.01 to 0.1	0.01 to 0.1
CCS(=O)(=O)c1ccc(CNC(=O)[C@H](CCC(N)=O)NC(=O)[C@@H]2CC[C@@H]3CCN(C(=O)CCCCc4cn([C@H](C(=O)N5C[C@H](O)C[C@H]5C(=O)N[C@@H](C)c5ccc(-c6scnc6C)cc5)C(C)(C)C)nn4)C[C@H](NC(=O)c4cc5cc(C(=O)P(=O)(O)O)ccc5[nH]4)C(=O)N32)cc1 [Compound 11, (2-(((5S,8S,10aR)-8-(((S)-5-amino-1-((4-(ethylsulfonyl)benzyl)amino)-1,5-dioxopentan-2-yl)carbamoyl)-3-(5-(1-((S)-1-((2S,4R)-4-hydroxy-2-(((S)-1-(4-(4-methylthiazol-5-yl)phenyl)ethyl)carbamoyl)pyrrolidin-1-yl)-3,3-dimethyl-1-oxobutan-2-yl)-1H-1,2,3-triazol-4-yl)pentanoyl)-6-oxodecahydropyrrolo[1,2-a][1,5]diazocin-5-yl)carbamoyl)-1H-indole-5-carbonyl)phosphonic acid]	> 80	< 0.01	0.01 to 0.1	< 0.01
Cc1ncsc1-c1ccc([C@H](C)NC(=O)[C@@H]2C[C@@H](O)CN2C(=O)[C@@H](n2cc(CCCCC(=O)N3CC[C@H]4CC[C@@H](C(=O)N[C@@H](CCC(N)=O)COc5cccc(Cl)c5)N4C(=O)[C@@H](NC(=O)c4cc5cc(C(=O)P(=O)(O)O)ccc5[nH]4)C3)nn2)C(C)(C)C)cc1 [Compound 12, (2-(((5S,8S,10aR)-8-(((S)-5-amino-1-(3-chlorophenoxy)-5-oxopentan-2-yl)carbamoyl)-3-(5-(1-((S)-1-((2S,4R)-4-hydroxy-2-(((S)-1-(4-(4-methylthiazol-5-yl)phenyl)ethyl)carbamoyl)pyrrolidin-1-yl)-3,3-dimethyl-1-oxobutan-2-yl)-1H-1,2,3-triazol-4-yl)pentanoyl)-6-oxodecahydropyrrolo[1,2-a][1,5]diazocin-5-yl)carbamoyl)-1H-indole-5-carbonyl)phosphonic acid]	> 80	0.01 to 0.1	0.1 to 1	0.01 to 0.1
